Tests used:
[1] = tested on: Small Brown Planthopper (Laodelphax Striatellus); experiment: Test of insecticidal efficacy against small brown planthopper (Test Example 2); assay type: in vivo; settings: 500 ppm, rice plants soaked 30 seconds, third-instar larvae, eight days after inoculation; criteria same as in Test Example 1
From the text: Test of Insecticidal Efficacy Against Small Brown Planthopper (Laodelphax Striatellus)

[2] = tested on: Green Peach Aphid (Myzus Persicae); experiment: Test of preventive value against green peach aphid (Test Example 1); assay type: in vivo; settings: 500 ppm, sprayed over stems and leaves of potted Chinese cabbages, sixth day after spraying
Experimental: Test of Preventive Value Against Green Peach Aphid (Myzus Persicae)
Chinese cabbages were planted in plastic pots, each with a size of 8 cm in diameter and 8 cm in height, after which green peach aphids were propagated and the number of parasitic insects was examined in each pot. An oxazepine compound or salt thereof expressed by General Formula (I) according to the present invention was dispersed in water and the dispersion was diluted to 500 ppm in the form of a reagent, after which the reagent was sprayed over stems and leaves of potted Chinese cabbages and let dry under wind, and the pots were kept in a greenhouse, and on the sixth day after the reagent was sprayed, the number of green peach aphids living parasitically on each Chinese cabbage was examined and the preventive value was calculated based on the formula below, and judgment was made according to the criteria below. Preventive value=100−{(T×Ca)/(Ta×C)}×100 [Mathematical Formula 1] • Ta: Number of parasitic insects inside the treatment area before spraying • T: Number of parasitic insects inside the treatment area after spraying • Ca: Number of parasitic insects inside the non-treatment area before spraying • C: Number of parasitic insects inside the non-treatment area after spraying Judgment Criteria • A - - - Preventive value: 100% • B - - - Preventive value: 99%˜90% • C - - - Preventive value: 89%˜80% • D - - - Preventive value: 79%˜50%

Structure (SMILES) | Corrected insect mortality, judgment [1] | Preventive value, judgment [2]
COCN1C(=O)c2nn(-c3cccnc3)cc2Oc2cc(F)ccc21 [8-25] | A to D | A to D
Cc1nn(C)c2c1N(CC#N)C(=O)c1nn(-c3cccnc3)cc1O2 [14-5] | A to D | A to D
CC(C)(C)OC(=O)CN1C(=O)c2nn(-c3cccnc3)cc2Oc2ccccc21 [1-75] | A to D | A to D
O=C1Nc2cc(C(F)(F)F)ccc2Oc2cn(-c3cccnc3)nc21 [1-37] | A to D | A to D
CSCN1C(=O)c2nn(-c3cccnc3)cc2Oc2ccccc21 [8-2] | A to D | A to D
O=C1NC=COc2cn(-c3cccnc3)nc21 [7-1] | A to D | A to D
C#CCN1C(=O)c2nn(-c3cncc(F)c3)cc2Oc2cc(F)ccc21 [1-81] | A to D | A to D
ONC1=Nc2ccccc2Oc2cn(-c3cccnc3)nc21 [11-9] | A to D | A to D
O=C1Nc2ccccc2Oc2c1nn(-c1cccnc1)c2F [9-3] | A to D | A to D
COCCN1C(=O)c2nn(-c3cccnc3)cc2Oc2ccccc21 [1-68] | A to D | A to D
O=C1c2nn(-c3cccnc3)cc2Oc2ccccc2N1Cc1ccccn1 [1-57] | A to D | A to D
C=CCN1C(=O)c2nn(-c3cccnc3)cc2Oc2ccc(F)cc21 [8-35] | A to D | A to D
Cc1ccc2c(c1)Oc1cn(-c3cccnc3)nc1C(=O)N2CC#N [1-33] | A to D | A to D
C=CCN1C(=O)c2nn(-c3cccnc3)cc2Oc2ccccc21 [1-55] | A to D | A to D
O=C1Nc2cc(Br)ccc2Oc2cn(-c3cccnc3)nc21 [8-62] | A to D | A to D
CC(C(=O)OC(C)(C)C)N1C(=O)c2nn(-c3cccnc3)cc2Oc2cc(F)ccc21 (centres unmarked) [8-32] | A to D | A to D
CN(C)c1ccc2c(c1)N(C)C(=O)c1nn(-c3cccnc3)cc1O2 [1-46] | A to D | A to D
O=C1c2nn(-c3cccnc3)cc2Oc2ccccc2N1CC(F)(F)F [1-5] | A to D | A to D
CN1C(=O)c2nn(-c3cccnc3)cc2Oc2cc(C(F)(F)F)ccc21 [1-34] | A to D | A to D
CCCCN1C(=O)c2nn(-c3cccnc3)cc2Oc2ccccc21 [1-51] | A to D | A to D
C#CCN1C(=O)c2nn(-c3cccnc3)cc2Oc2ccc(Cl)cc21 [8-56] | A to D | A to D
O=C1Nc2cc(F)ccc2Oc2cn(-c3cccnc3)nc21 [1-14] | A to D | A to D
C=CCN(CC=C)C1=Nc2cc(F)ccc2Oc2cn(-c3cccnc3)nc21 [11-11] | A to D | A to D
c1cncc(-n2cc3c(n2)CNc2ccccc2O3)c1 [3-1] | A to D | A to D
CN1C(=O)c2nn(-c3cccnc3)cc2Oc2c(F)cccc21 [1-7] | A to D | A to D

Structure (SMILES) | Corrected insect mortality, judgment [1] | Preventive value, judgment [2]
O=CN1C(=O)c2nn(-c3cccnc3)cc2Oc2ccccc21 [8-12] | A to D | A to D
CN1C(=O)c2nn(-c3cccnc3)cc2Oc2ccccc21 [Compound No. 1-2, 9-methyl-2-(pyridine-3-yl)-2H-benzo [b]pyrazolo [3,4-f][1,4]oxazepine-10 (9H)-one] | A to D | A to D
O=C1c2nn(-c3cccnc3)cc2Oc2ccccc2N1CC(F)(F)C(F)(F)F [8-20] | A to D | A to D
Nc1ccc2c(c1)NC(=O)c1nn(-c3cccnc3)cc1O2 [1-44] | A to D | A to D
N#CCN1C(=O)c2nn(-c3cccnc3)cc2Oc2c(F)cccc21 [1-9] | A to D | A to D
O=C1OCCC1N1C(=O)c2nn(-c3cccnc3)cc2Oc2cc(F)ccc21 (centres unmarked) [8-31] | A to D | A to D
COCN1C(=O)c2nn(-c3cccnc3)cc2Oc2ccccc21 [1-67] | A to D | A to D
O=C1c2nn(-c3cccnc3)cc2Oc2cc(F)ccc2N1CCCCBr [8-34] | A to D | A to D
O=C(CN1C(=O)c2nn(-c3cccnc3)cc2Oc2ccccc21)c1ccc(Cl)cc1 [1-76] | A to D | A to D
COc1ccc(CN2C(=O)c3nn(-c4cccnc4)cc3Oc3ccccc32)cc1 [1-56] | A to D | A to D
CC(=O)N1C(=O)c2nn(-c3cccnc3)cc2Oc2ccccc21 [1-73] | A to D | A to D
N#CCN1C(=O)c2nn(-c3cccnc3)cc2Oc2cc(C(F)(F)F)ccc21 [1-36] | A to D | A to D
C#CCN1C(=O)c2nn(-c3cccnc3)cc2Oc2cc(C)ccc21 [1-32] | A to D | A to D
N#CCN1C(=O)c2nn(-c3cccnc3)cc2Oc2cc(F)ccc21 [Compound No. 1-13, 2-(6-fluoro-10-oxo-2-(pyridine-3-yl)-2H-benzo [b]pyrazolo [3,4-f][1,4]oxazepine-9 (10H)-yl) acetonitrile] | A to D | A to D
O=C1Nc2cc(Cl)ccc2Oc2cn(-c3cccnc3)nc21 [8-54] | A to D | A to D
COC(=O)CN1C(=O)c2nn(-c3cccnc3)cc2Oc2ccccc21 [1-74] | A to D | A to D
C#CCN1C(=O)c2nn(-c3cccnc3)cc2Oc2ccc(F)cc21 [1-16] | A to D | A to D
CCCCCCCCCCCCN1C(=O)c2nn(-c3cccnc3)cc2Oc2ccc(F)cc21 [8-37] | A to D | A to D
C#CCN1C(=O)c2nn(-c3cccnc3)cc2Oc2c(F)cccc21 [1-8] | A to D | A to D
CN1C(=O)c2nn(-c3cccnc3)cc2Oc2ccncc21 [12-1] | A to D | A to D
O=C1c2nn(-c3cccnc3)cc2Oc2ccccc2N1CCN1CCCCC1 [1-70] | A to D | A to D
CCOCN1C(=O)c2nn(-c3cccnc3)cc2Oc2cc(F)ccc21 [8-26] | A to D | A to D
N#CCN1C(=O)c2nn(-c3cccnc3)cc2Oc2cc(Cl)ccc21 [1-29] | A to D | A to D
NC1=Nc2ccccc2Oc2cn(-c3cccnc3)nc21 [11-5] | A to D | A to D

From US10100061B2, “Oxazepine compound and agricultural/horticultural insecticide containing said compound as active ingredient, and method for using the same” (NIHON NOHYAKU CO., LTD., priority 2014, dated 2018)
